The target in test [1] is D(1A) dopamine receptor (Homo sapiens) (UniProt P21728). Particulars: Compound concentration 10.0 uM.
The target in test [2] is Serine/threonine-protein kinase 17A (Homo sapiens) (UniProt Q9UEE5). The note with it: Compound concentration 100.0 nM.
Test [3] concerns the target Tyrosine-protein kinase JAK1 (Homo sapiens) (UniProt P23458). The note with it: Compound concentration 100.0 nM.
Test [4] deals with Cyclin-dependent kinase 17 (Homo sapiens) (UniProt Q00537). Particulars: Compound concentration 100.0 nM.
Test [5] has as its target 5-hydroxytryptamine receptor 6 (Homo sapiens) (UniProt P50406). Particulars: Compound concentration 10.0 uM.
For test [6], the target named is Beta-3 adrenergic receptor (Homo sapiens) (UniProt P13945). The note with it: Compound concentration 10.0 uM.
The target in test [7] is Death-associated protein kinase 3 (Homo sapiens) (UniProt O43293). Particulars: Compound concentration 100.0 nM.
Test [8] addresses Serine/threonine-protein kinase PknB (Mycobacterium tuberculosis) (UniProt P9WI81). The note with it: Compound concentration 100.0 nM.
Test [9] addresses Serine/threonine-protein kinase 38-like (Homo sapiens) (UniProt Q9Y2H1). The note with it: Compound concentration 100.0 nM.
The target in test [10] is 5-hydroxytryptamine receptor 2B (Homo sapiens, UniProt P41595). The test is described as follows: GPCRScan assay: inhibition of 5-HT2B. On the set-up: radioligand conc. used [nm] 1.0 – 2.0, parental cells stable HEK.
The subject of test [11] is Epidermal growth factor receptor (Homo sapiens), P00533 [UNDEFINED MUTATION]. The note with it: Compound concentration 100.0 nM.
Test [12] has as its target Serine/threonine-protein kinase MRCK gamma (Homo sapiens) (UniProt Q6DT37). The note with it: Compound concentration 100.0 nM.
In test [13] the target is Muscarinic acetylcholine receptor M1 (Homo sapiens) (UniProt P11229). The note with it: Compound concentration 10.0 uM.
The target of test [14] is Ephrin type-A receptor 5 (Homo sapiens) (UniProt P54756). Particulars: Compound concentration 100.0 nM.
Test [15] has as its target Serine/threonine-protein kinase/endoribonuclease IRE1 (Homo sapiens) (UniProt O75460). The note with it: Compound concentration 100.0 nM.
For test [16], the target named is Wee1-like protein kinase (Homo sapiens) (UniProt P30291). The note with it: Compound concentration 100.0 nM.
The target in test [17] is Mitogen-activated protein kinase kinase kinase 5 (Homo sapiens) (UniProt Q99683). The note with it: Compound concentration 100.0 nM.
The nature of test [18]: GPCRScan assay: inhibition of GABA/PBR. On the set-up: species or system Rattus norvegicus; radioligand conc. used [nm] 0.3 – 2.0, parental cells brain tissue.
The target of a further test is LIM domain kinase 1 (Homo sapiens, UniProt P53667). Description: Inhibition of LIMK1 at compound concentration of 10.0 uM using the ScanMax (DiscoverX).
The target in test [19] is Tyrosine-protein kinase Fyn (Homo sapiens, UniProt P06241). Description: Invitrogen kinase assay (FYN).
The target in test [20] is Tyrosine-protein kinase Fgr (Homo sapiens, UniProt P09769). The test is described as follows: Invitrogen kinase assay (FGR).
The target of test [21] is Tyrosine-protein kinase SYK (Homo sapiens, UniProt P43405). Description: Inhibition of SYK at compound concentration of 10.0 uM using the ScanMax (DiscoverX).
Test [22] addresses Tyrosine-protein kinase JAK2 (Homo sapiens, UniProt O60674). The test is described as follows: Invitrogen kinase assay (JAK2).
Test [23] addresses Sodium-dependent noradrenaline transporter (Homo sapiens, UniProt P23975). Description: GPCRScan assay: inhibition of NET. Set-up: radioligand conc. used [nm] 1.3 – 5.0, parental cells stable HEK.
Test [24] addresses 5-hydroxytryptamine receptor 1E (Homo sapiens) (UniProt P28566). Particulars: Compound concentration 10.0 uM.
Test [25] concerns the target NT-3 growth factor receptor (Homo sapiens, UniProt Q16288). The test is described as follows: Invitrogen kinase assay (NTRK3).
Test [26] deals with High affinity nerve growth factor receptor (Homo sapiens, UniProt P04629). The test is described as follows: Invitrogen kinase assay (NTRK1).
Test [27] has as its target Proto-oncogene tyrosine-protein kinase Src (Homo sapiens, UniProt P12931). Description: Invitrogen kinase assay (SRC).
Test [28] addresses Tyrosine-protein kinase Fer (Homo sapiens, UniProt P16591). The test is described as follows: Invitrogen kinase assay (FER).
In test [29] the target is Tyrosine-protein kinase ZAP-70 (Homo sapiens, UniProt P43403). Description: Invitrogen kinase assay (ZAP70).

Each structure is given as a SMILES string. The source made the active and inactive calls. The rule behind the calls is not given here.

Serine/threonine-protein kinase 17A (Homo sapiens), sequence (Q9UEE5 whole entry): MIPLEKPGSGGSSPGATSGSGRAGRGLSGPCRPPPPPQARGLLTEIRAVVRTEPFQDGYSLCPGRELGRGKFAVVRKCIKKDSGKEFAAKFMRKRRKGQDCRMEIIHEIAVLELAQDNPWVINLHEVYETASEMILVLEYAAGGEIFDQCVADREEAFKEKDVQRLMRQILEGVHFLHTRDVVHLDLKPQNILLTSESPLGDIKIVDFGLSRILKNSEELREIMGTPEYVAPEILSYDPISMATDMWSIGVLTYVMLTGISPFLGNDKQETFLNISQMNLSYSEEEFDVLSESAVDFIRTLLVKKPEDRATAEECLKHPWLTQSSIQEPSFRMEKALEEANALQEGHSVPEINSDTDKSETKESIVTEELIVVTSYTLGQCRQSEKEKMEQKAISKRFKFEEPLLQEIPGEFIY
Serine/threonine-protein kinase 38-like (Homo sapiens), sequence (Q9Y2H1 2-464 limits assumed): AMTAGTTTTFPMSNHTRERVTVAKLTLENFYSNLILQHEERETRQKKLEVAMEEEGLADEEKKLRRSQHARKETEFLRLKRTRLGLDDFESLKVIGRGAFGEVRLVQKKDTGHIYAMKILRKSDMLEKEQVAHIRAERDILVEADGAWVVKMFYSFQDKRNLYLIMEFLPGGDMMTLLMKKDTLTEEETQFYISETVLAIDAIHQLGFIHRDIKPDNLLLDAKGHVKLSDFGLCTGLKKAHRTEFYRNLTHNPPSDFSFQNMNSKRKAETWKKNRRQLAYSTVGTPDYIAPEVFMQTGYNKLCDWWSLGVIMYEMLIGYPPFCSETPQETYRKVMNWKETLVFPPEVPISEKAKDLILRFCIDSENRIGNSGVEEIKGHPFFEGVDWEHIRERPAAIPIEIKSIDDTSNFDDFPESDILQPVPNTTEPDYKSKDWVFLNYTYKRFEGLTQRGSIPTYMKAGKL
Ephrin type-A receptor 5 (Homo sapiens), sequence (P54756 whole entry): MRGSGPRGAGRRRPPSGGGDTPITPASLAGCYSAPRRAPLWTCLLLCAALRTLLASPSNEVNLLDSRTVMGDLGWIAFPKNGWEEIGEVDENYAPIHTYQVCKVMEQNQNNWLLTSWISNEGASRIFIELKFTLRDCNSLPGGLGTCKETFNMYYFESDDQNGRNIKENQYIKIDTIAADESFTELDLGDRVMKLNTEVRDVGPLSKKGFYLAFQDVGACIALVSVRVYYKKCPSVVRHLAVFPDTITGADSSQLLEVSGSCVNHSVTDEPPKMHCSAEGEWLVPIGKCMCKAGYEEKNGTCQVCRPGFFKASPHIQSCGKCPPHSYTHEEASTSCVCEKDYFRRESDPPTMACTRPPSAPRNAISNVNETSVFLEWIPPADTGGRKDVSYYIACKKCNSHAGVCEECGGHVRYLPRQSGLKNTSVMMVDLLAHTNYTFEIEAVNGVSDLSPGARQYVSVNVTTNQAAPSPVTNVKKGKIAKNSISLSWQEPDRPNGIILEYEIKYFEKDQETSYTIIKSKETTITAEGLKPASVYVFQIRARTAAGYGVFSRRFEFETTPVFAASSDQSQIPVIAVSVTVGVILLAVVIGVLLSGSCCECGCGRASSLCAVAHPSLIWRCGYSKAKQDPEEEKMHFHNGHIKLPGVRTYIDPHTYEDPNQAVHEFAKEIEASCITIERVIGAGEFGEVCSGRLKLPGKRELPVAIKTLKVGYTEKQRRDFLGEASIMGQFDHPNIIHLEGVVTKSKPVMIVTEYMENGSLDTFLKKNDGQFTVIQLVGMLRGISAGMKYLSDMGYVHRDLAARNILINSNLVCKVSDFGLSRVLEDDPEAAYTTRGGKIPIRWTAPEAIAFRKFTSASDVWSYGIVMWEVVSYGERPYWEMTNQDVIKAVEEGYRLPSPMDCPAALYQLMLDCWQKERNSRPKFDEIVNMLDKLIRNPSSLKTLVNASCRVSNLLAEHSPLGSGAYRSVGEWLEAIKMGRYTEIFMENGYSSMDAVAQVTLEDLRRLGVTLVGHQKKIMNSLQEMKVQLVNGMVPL
Tyrosine-protein kinase JAK1 (Homo sapiens), sequence (P23458 whole entry): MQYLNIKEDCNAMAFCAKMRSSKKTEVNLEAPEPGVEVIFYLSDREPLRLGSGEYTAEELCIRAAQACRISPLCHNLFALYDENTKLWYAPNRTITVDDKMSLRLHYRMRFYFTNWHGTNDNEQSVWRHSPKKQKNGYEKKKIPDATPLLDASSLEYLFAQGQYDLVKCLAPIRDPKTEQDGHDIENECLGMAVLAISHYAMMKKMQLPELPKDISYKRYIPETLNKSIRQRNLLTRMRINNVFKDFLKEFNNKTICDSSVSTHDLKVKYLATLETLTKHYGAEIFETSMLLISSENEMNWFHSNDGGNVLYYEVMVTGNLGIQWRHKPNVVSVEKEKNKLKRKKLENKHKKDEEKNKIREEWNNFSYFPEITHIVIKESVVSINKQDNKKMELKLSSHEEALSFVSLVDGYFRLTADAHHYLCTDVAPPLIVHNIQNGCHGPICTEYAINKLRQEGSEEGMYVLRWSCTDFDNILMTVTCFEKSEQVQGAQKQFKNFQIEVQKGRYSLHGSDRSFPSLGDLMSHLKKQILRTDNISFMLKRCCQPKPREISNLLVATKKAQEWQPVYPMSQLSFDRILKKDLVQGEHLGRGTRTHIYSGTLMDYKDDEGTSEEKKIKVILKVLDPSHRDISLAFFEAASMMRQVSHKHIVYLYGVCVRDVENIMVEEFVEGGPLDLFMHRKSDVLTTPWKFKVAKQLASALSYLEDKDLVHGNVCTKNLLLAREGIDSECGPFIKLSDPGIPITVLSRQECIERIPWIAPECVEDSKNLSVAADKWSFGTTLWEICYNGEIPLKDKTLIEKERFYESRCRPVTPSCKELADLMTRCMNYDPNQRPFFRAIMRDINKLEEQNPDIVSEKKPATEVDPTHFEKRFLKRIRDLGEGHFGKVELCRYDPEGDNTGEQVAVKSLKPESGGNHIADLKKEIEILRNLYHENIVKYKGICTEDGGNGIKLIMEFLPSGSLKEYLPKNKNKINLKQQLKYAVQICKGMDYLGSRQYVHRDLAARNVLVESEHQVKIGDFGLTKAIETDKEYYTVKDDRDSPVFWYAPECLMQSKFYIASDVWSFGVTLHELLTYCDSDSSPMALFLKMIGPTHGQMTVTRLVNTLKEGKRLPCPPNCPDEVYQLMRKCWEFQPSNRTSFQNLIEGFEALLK
Serine/threonine-protein kinase MRCK gamma (Homo sapiens), sequence (Q6DT37 whole entry): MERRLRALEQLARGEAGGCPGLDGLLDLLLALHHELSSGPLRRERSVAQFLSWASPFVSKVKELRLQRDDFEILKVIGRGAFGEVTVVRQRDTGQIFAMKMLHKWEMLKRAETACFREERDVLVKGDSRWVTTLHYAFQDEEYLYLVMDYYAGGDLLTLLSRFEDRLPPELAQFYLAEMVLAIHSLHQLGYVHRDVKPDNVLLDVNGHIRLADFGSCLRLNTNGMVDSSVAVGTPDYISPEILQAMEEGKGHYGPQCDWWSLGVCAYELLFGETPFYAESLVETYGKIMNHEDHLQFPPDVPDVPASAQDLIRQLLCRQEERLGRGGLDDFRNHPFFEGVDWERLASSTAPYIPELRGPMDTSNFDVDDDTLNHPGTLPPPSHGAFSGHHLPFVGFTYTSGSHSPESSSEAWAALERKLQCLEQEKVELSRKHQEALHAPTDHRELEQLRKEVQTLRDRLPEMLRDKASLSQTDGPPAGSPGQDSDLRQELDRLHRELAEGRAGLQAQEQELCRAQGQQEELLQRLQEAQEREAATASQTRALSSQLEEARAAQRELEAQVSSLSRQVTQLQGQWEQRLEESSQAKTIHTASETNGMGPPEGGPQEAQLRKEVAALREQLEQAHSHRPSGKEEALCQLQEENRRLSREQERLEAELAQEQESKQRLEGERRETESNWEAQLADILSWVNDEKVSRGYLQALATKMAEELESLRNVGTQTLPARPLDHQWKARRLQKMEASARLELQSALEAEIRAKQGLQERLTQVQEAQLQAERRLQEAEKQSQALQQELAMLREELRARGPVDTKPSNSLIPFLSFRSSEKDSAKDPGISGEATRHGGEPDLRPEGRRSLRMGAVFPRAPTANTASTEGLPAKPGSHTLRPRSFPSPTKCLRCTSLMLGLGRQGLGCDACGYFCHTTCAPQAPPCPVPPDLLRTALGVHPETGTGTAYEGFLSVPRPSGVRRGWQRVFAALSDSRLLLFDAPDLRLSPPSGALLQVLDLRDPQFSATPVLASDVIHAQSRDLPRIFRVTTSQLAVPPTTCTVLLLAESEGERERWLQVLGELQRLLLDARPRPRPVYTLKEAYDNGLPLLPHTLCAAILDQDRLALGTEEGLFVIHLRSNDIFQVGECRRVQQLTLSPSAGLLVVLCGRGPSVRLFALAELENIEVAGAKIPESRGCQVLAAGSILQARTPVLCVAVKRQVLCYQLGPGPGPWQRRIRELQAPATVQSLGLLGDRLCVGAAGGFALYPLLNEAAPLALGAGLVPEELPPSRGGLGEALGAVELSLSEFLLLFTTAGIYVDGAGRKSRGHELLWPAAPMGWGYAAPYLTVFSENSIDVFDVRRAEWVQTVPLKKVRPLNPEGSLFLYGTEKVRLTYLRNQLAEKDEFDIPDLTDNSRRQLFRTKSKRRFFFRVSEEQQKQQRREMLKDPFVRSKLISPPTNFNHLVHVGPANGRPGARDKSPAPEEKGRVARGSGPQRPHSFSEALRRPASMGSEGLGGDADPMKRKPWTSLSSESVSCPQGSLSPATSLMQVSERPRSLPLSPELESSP
Death-associated protein kinase 3 (Homo sapiens), sequence (O43293 whole entry, looked up): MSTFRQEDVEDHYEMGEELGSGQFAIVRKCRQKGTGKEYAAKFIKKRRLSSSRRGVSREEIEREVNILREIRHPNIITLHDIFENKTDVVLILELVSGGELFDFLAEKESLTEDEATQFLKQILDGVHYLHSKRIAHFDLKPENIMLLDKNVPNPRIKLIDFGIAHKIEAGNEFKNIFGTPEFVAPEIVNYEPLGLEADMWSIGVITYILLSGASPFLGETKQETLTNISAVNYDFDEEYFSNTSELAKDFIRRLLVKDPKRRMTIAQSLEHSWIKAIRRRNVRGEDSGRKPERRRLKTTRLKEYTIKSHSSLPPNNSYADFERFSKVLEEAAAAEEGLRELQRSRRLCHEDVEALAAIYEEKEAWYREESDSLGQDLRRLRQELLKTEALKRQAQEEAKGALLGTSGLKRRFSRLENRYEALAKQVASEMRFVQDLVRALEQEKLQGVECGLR

What is called inhibition is the change of the read-out against control, counted positive when it falls. The Ki is the dissociation constant of the complex between target and ligand, obtained from inhibition or displacement. A word on the pKi: it is the negative decadic logarithm of the Ki, by convention in mol/L. Usually Kd stands for the concentration at which binding is half-saturated. As to `Cc1ccc(-c2cnc([C@@]3(O)CC[C@H](C(=O)O)C(C)(C)C3)s2)cc1Nc1cccc(C(F)(F)F)n1` [MRL-SYKi-NC], the inhibition in test [1] is 6.26%; in test [5] it was 6.66%; in test [6], -6.54%; in [13], -6.43%. Moreover, the residual activity in test [2] is 96.7%; in test [3], 92.6%; in test [4], 100%; in test [7], 92.7%; in test [8], 86.7%; in test [9], 100%. For the same compound, the residual activity was 100% in [11]; 100% in test [12]; 100% in test [14]; 68.6% in test [15]; 81.4% in test [16]; 100% in test [17]. Also, the values for the Ki in test [10] and in test [18] were 1060 nM and 774 nM, respectively. Besides, in [18], the pKi was 6.11. Moreover, the Kd at LIM domain kinase 1 is > 10000 nM (not active).
One may read the IC50 as the concentration at which inhibition is half-maximal. Consider `Cc1cc(Nc2nccc(C)n2)cc(-c2cnc([C@@]3(O)CC[C@H](C(=O)O)C(C)(C)C3)s2)c1` [MRL-SYKi], for which the inhibition was -7.4% in [1], 3.43% in test [6] and 11.4% in test [24]. For the same compound, the IC50 in [19] is 205 nM (not active); in test [20], 185 nM (not active); in [22], 242 nM (not active); in test [25], 120 nM (not active); in test [26], 105 nM (not active); in [27], 100 nM (not active). For the same compound, the IC50 is 232 nM (not active) in test [28] and 24 nM (active) in [29]. Also, the residual activity is 99.6% in [2]; 31.8% in test [3]; 73.2% in test [4]; 100% in [7]; 100% in [8]; 100% in test [9]. For the same compound, the residual activity was 100% in test [11]; 93.6% in test [12]; 94% in test [14]; 90.2% in test [15]; 93.1% in test [16]; 83.3% in test [17]. For the same compound, the Kd in test [21] is 1.8 nM (active). Moreover, the Ki in test [23] came out at 7710 nM.

These data come from ChEMBL document CHEMBL4507285, “Data for DCP probe MRL-SYKi” (2021).
